Measured values reported in paper PMC12756790, “Site-Selective Protein Modification via Peptide-Directed Proximity Catalysis” (ACS Omega, 2025).

Key:
insulin [1] = biological target: T1, insulin (Homo sapiens, UniProt P01308); assay: peptide-directed proximity catalysis labeling of insulin, intact protein LC-MS; assay type: biochemical; conditions: control (scrambled peptide, peptide lacking PyOx, or PyOx-azide) with biotin-NASA 3b, pH 7.4, 2 h, 22 °C
Procedure: With these reagents in hand, we attempted peptide-directed proximity catalysis on insulin. Initial experiments were performed in pH 7.4 phosphate buffer at a concentration of 50 μM, which was above the K d calculated for peptide binding (Figure ). Varying equivalents of pyridinium oxime peptide P1-(PyOx) 1 (0, 1.25, 2.5, 5, or 10 equiv wrt protein) were then added, followed by the addition of biotin–NASA 3b (20 equiv wrt protein). […] After 2 h at room temperature (22 °C), reactions were analyzed by intact protein liquid chromatography mass spectrometry (LC-MS). […] Further controls using either a scrambled peptide (FYRTGF-(PyOx)1), peptide lacking the pyridinium oxime P1, or pyridinium oxime-azide 2 also gave no labeling, providing further evidence that labeling was mediated by a specific protein–peptide binding interaction, and catalyzed by the pyridinium oxime motif.
General protocol: A solution of PyOx-peptide probe ([…] in pH 7.4 PBS, 25 µL, 7.4 PBS, 25 µL, 1.25 nmol; Final concentration 25 µM ) and shaken for 30 min . A solution of biotin-NASA 3b (25 mM in DMSO, 1 µL, 25 nmol; Final concentration 490 µM) was then added and the mixture shaken at room temperature for 2 h. Samples were then analysed by LC-MS without purification.
Figure S5: Deconvoluted mass spectra from general labelling protocol showing modified and unmodified insulin. […]

RNase S = test system: RNase S; design: method as in Kim and Raines, Protein Sci. 1993 (ref 26); conditions: S-peptide cleaved from N-terminal domain of RNase A; ref Kim and Raines, Protein Sci. 1993 (ref 26); cited from earlier work
insulin [2] = biological target: T1, insulin; assay: QCM-D binding of gold-tethered peptides to insulin; conditions: predicted from QCM-D of model peptides, 'noting the assumptions detailed above'
Source text: To predict whether the insulin-binding capability of P1 would be maintained after the introduction of a pyridinium oxime catalyst, peptides bearing either an N- or C-terminal cysteine (C-P1 and P1-C, respectively) were first synthesized and tethered to a gold sensor for quartz crystal microbalance with dissipation monitoring (QCM-D) analysis. It is important to note that these model peptides lacked the positive charge that would be introduced upon installation of a pyridinium oxime, and so evidence of binding was expected to be indicative of binding potential, rather than providing an exact measure of binding affinity.
Sensor preparation: QCM-D gold sensors (QSX 301, Biolin Scientific) were cleaned by UV–ozone treatment (30 min), followed by sonication in a 2% Hellmanex III solution (5 min) and then sonication in ultrapure water (5 min). Sensors were then dried with N2 […]
Binding studies: Following cleaning, each sensor was installed into the flow modules of a Q-Sense E4, QFM 401 system by Biolin Scientific. Each chamber was then filled with Milli-Q water at a flow rate of 100 μL/min controlled by a four-channel peristaltic pump. To achieve a stable baseline, PBS was left to flow through the modules at 100 μL/min until the drift in frequency was <±1 Hz over 10 min. […]

T1 sequence (P01308 25-54 limits assumed): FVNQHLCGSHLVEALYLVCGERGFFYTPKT
T1 sequence (P01308 90-110 limits assumed): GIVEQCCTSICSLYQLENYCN

FYRTGF-(PyOx)1 [scrambled peptide control]
insulin labeling, controls (insulin [1]): no labeling

KETAAAKFERQHMDSSTSA [P2]
binding affinity to remaining parent protein RNase S (RNase S): nM binding affinty

RGFFYT [P1]
insulin labeling, controls (insulin [1]): no labeling | predicted affinity for target protein (insulin [2]): μM affinity
